These results are taken from patent US20260166128A1, “HUMAN AMYLIN ANALOG, AND DERIVATIVE THEREOF AND USE THEREOF” (priority 2022, published 2026).

As a reminder, the EC50 is the concentration needed to bring the measured effect to its halfway point.

Numbered stars: 1 amine (or outer) side, 2 acyl side, 3 side chain; on linkers, the order of the positions; unused ones are H or OH. Bridge positions count the residues as written; N and C are the ends. Square brackets hold non-standard residues; d marks the D form. Side chains are listed from the residue outwards. Peptide text beside a SMILES is read from it. * marks the point of attachment. C20 diacid = O=C(O)CCCCCCCCCCCCCCCCCCC(=O)*; γGlu = O=C(O)[C@H](CCC(=O)[*:2])N[*:1]; βAsp = O=C(O)[C@H](CC(=O)[*:2])N[*:1]; cisHyp = O=C(O)[C@@H]1C[C@H](O)CN1; Hyp = O=C(O)[C@@H]1C[C@@H](O)CN1; AEEA = NCCOCCOCC(=O)O

The target in this assay is T1, human amylin receptor (Homo sapiens, UniProt O60896+P30988).
T1 construct: host or cells: CHO-K1/Ga15/AMY3 cells, further stably transfected with a CRE-luciferase plasmid
T1 sequence (P30988 25-474): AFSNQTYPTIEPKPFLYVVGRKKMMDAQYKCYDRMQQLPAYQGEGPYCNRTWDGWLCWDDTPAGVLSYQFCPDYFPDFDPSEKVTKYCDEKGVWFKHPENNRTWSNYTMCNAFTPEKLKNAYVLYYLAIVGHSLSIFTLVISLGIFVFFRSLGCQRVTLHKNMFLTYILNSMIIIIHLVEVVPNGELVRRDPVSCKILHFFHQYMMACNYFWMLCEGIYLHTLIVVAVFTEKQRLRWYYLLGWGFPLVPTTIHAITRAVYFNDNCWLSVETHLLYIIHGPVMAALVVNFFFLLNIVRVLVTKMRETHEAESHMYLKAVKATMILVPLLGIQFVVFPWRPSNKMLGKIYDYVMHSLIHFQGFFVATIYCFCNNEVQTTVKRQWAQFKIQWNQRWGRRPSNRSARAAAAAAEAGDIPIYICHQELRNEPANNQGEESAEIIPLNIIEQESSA
T1 sequence (O60896 24-148 partner): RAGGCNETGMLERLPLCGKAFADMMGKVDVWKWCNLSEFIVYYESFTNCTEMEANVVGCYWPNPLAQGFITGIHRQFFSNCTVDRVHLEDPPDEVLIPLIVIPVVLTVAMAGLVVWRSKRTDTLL
The assay is described as follows: Luciferase assay of amylin derivatives in amylin receptor/CRE-luc CHO cell line. As to conditions: CHO-K1/Ga15/AMY3 CRE-luc cells, 24 hours incubation, F12 medium containing 10% FBS; read-out: EC50. In kind it is cell-based.
Procedure: The experiment was intended to detect the activity or efficacy of the amylin derivatives on a human amylin receptor in vitro by luciferase assay.
50 μL of growth medium (F12 medium containing 10% FBS) was added into each well of a white 96-well plate, and the stably transfected amylin/CRE-lue CHO cells were inoculated into the white 96-well plate at a density of about 20,000 cells/well for activity determination.
As to `CC[C@H](C)[C@H](NC(=O)[C@@H]1CCCN1C(=O)[C@H](CCCCN)NC(=O)[C@H](CC(C)C)NC(=O)[C@H](CC(N)=O)NC(=O)[C@H](CC(N)=O)NC(=O)[C@H](CO)NC(=O)[C@H](CO)NC(=O)[C@H](Cc1c[nH]cn1)NC(=O)[C@H](CCCNC(=N)N)NC(=O)[C@H](CC(C)C)NC(=O)[C@H](Cc1ccccc1)NC(=O)[C@H](CC(=O)O)NC(=O)[C@H](C)NC(=O)[C@H](CC(C)C)NC(=O)[C@H](CCCNC(=N)N)NC(=O)[C@H](CCC(N)=O)NC(=O)[C@@H](NC(=O)[C@H](C)NC(=O)[C@@H]1CSSC[C@H](NC(=O)[C@H](CCCCN)NC(=O)[C@H](CC(=O)O)NC(=O)COCCOCCNC(=O)COCCOCCNC(=O)CCCCCCCCCCCCCCCCCCC(=O)O)C(=O)N[C@@H](CC(N)=O)C(=O)N[C@@H]([C@@H](C)O)C(=O)N[C@@H](C)C(=O)N[C@@H]([C@@H](C)O)C(=O)N1)[C@@H](C)O)C(=O)N[C@@H](CC(C)C)C(=O)N1CCC[C@H]1C(=O)N1CCC[C@H]1C(=O)N[C@H](C(=O)N[C@@H](CC(N)=O)C(=O)N[C@H](C(=O)NCC(=O)N[C@@H](CO)C(=O)N[C@@H](CC(N)=O)C(=O)N[C@H](C(=O)N1CCC[C@H]1C(N)=O)[C@@H](C)O)C(C)C)[C@@H](C)O` [PD194] ({C20 diacid-AEEA-AEEA}-DKCNTATCATQRLADFLRHSSNNLKPILPPTNVGSNTP-NH2; disulfide 3-8 (inferred)), the EC50 turned out to be 74 pM.
`CC[C@H](C)[C@H](NC(=O)[C@@H]1CCCN1C(=O)[C@H](CCCCN)NC(=O)[C@H](CC(C)C)NC(=O)[C@H](CC(N)=O)NC(=O)[C@H](CC(N)=O)NC(=O)[C@H](CO)NC(=O)[C@H](CO)NC(=O)[C@H](Cc1c[nH]cn1)NC(=O)[C@H](CCCNC(=N)N)NC(=O)[C@H](CC(C)C)NC(=O)[C@H](Cc1ccccc1)NC(=O)[C@H](CC(=O)O)NC(=O)[C@H](C)NC(=O)[C@H](CC(C)C)NC(=O)[C@H](CCCNC(=N)N)NC(=O)[C@H](CCC(N)=O)NC(=O)[C@@H](NC(=O)[C@H](C)NC(=O)[C@@H]1CSSC[C@H](NC(=O)[C@H](CCCCN)NC(=O)COCCOCCNC(=O)COCCOCCNC(=O)C[C@H](NC(=O)CCCCCCCCCCCCCCCCCCC(=O)O)C(=O)O)C(=O)N[C@@H](CC(N)=O)C(=O)N[C@@H]([C@@H](C)O)C(=O)N[C@@H](C)C(=O)N[C@@H]([C@@H](C)O)C(=O)N1)[C@@H](C)O)C(=O)N[C@@H](CC(C)C)C(=O)N1CCC[C@H]1C(=O)N1CCC[C@H]1C(=O)N[C@H](C(=O)N[C@@H](CC(N)=O)C(=O)N[C@H](C(=O)NCC(=O)N[C@@H](CO)C(=O)N[C@@H](CC(N)=O)C(=O)N[C@H](C(=O)N1CCC[C@H]1C(N)=O)[C@@H](C)O)C(C)C)[C@@H](C)O` [PD195] ({C20 diacid-βAsp-AEEA-AEEA}-KCNTATCATQRLADFLRHSSNNLKPILPPTNVGSNTP-NH2; disulfide 2-7 (inferred)): the EC50 was 25 pM.
Consider `CC[C@H](C)[C@H](NC(=O)[C@@H]1CCCN1C(=O)[C@H](CCCCNC(=O)CC[C@H](NC(=O)CCCCCCCCCCCCCCCCCCC(=O)O)C(=O)O)NC(=O)[C@H](CC(C)C)NC(=O)[C@H](CC(N)=O)NC(=O)[C@H](CC(N)=O)NC(=O)[C@H](CO)NC(=O)[C@H](CO)NC(=O)[C@H](Cc1c[nH]cn1)NC(=O)[C@H](CCCNC(=N)N)NC(=O)[C@H](CC(C)C)NC(=O)[C@H](Cc1ccccc1)NC(=O)[C@H](CCC(=O)O)NC(=O)[C@H](C)NC(=O)[C@H](CC(C)C)NC(=O)[C@H](CCCNC(=N)N)NC(=O)[C@H](CCC(N)=O)NC(=O)[C@@H](NC(=O)[C@H](C)NC(=O)[C@@H]1CSSC[C@H](NC(=O)[C@@H](N)CCCNC(=N)N)C(=O)N[C@@H](CC(N)=O)C(=O)N[C@@H]([C@@H](C)O)C(=O)N[C@@H](C)C(=O)N[C@@H]([C@@H](C)O)C(=O)N1)[C@@H](C)O)C(=O)N[C@@H](CC(C)C)C(=O)N1CCC[C@H]1C(=O)N1CCC[C@H]1C(=O)N[C@H](C(=O)N[C@@H](CC(N)=O)C(=O)N[C@H](C(=O)NCC(=O)N[C@@H](CO)C(=O)N[C@@H](CC(N)=O)C(=O)N[C@H](C(=O)N1C[C@@H](O)C[C@H]1C(N)=O)[C@@H](C)O)C(C)C)[C@@H](C)O` [PD055] (H-RCNTATCATQRLAEFLRHSSNNLK([γGlu-C20 diacid])PILPPTNVGSNT[cisHyp]-NH2; disulfide 2-7), for which the half-maximal effective concentration (EC50) is 909 pM.
The result for `CC[C@H](C)[C@H](NC(=O)[C@@H]1CCCN1C(=O)CNC(=O)[C@H](CC(C)C)NC(=O)[C@H](CC(N)=O)NC(=O)[C@H](CC(N)=O)NC(=O)[C@H](CO)NC(=O)[C@H](CCCCNC(=O)COCCOCCNC(=O)CC[C@H](NC(=O)CCCCCCCCCCCCCCCCCCC(=O)O)C(=O)O)NC(=O)[C@H](Cc1c[nH]cn1)NC(=O)[C@H](CCCNC(=N)N)NC(=O)[C@H](CC(C)C)NC(=O)[C@H](Cc1ccccc1)NC(=O)[C@H](CC(=O)O)NC(=O)[C@H](C)NC(=O)[C@H](CC(C)C)NC(=O)[C@H](CCCNC(=N)N)NC(=O)[C@H](CCC(N)=O)NC(=O)[C@@H](NC(=O)[C@H](C)NC(=O)[C@@H]1CSSC[C@H](NC(=O)[C@@H](N)CCCNC(=N)N)C(=O)N[C@@H](CC(N)=O)C(=O)N[C@@H]([C@@H](C)O)C(=O)N[C@@H](C)C(=O)N[C@@H]([C@@H](C)O)C(=O)N1)[C@@H](C)O)C(=O)N[C@@H](CC(C)C)C(=O)N1CCC[C@H]1C(=O)N1CCC[C@H]1C(=O)N[C@H](C(=O)N[C@@H](CC(N)=O)C(=O)N[C@H](C(=O)NCC(=O)N[C@@H](CO)C(=O)N[C@@H](CC(N)=O)C(=O)N[C@H](C(=O)N1C[C@H](O)C[C@H]1C(N)=O)[C@@H](C)O)C(C)C)[C@@H](C)O` [PD118] (H-RCNTATCATQRLADFLRHK([AEEA-γGlu-C20 diacid])SNNLGPILPPTNVGSNT[Hyp]-NH2; disulfide 2-7) reads 32 pM.
The figure for `CC[C@H](C)[C@H](NC(=O)[C@@H]1CCCN1C(=O)[C@H](CC(=O)O)NC(=O)[C@H](CC(C)C)NC(=O)[C@H](CC(N)=O)NC(=O)[C@H](CC(N)=O)NC(=O)[C@H](CO)NC(=O)[C@H](CO)NC(=O)[C@H](Cc1c[nH]cn1)NC(=O)[C@H](CCCNC(=N)N)NC(=O)[C@H](CC(C)C)NC(=O)[C@H](Cc1ccccc1)NC(=O)[C@H](CC(=O)O)NC(=O)[C@H](C)NC(=O)[C@H](CC(C)C)NC(=O)[C@H](CCCNC(=N)N)NC(=O)[C@H](CCC(N)=O)NC(=O)[C@@H](NC(=O)[C@H](C)NC(=O)[C@@H]1CSSC[C@H](NC(=O)[C@H](CCCCN)NC(=O)CC[C@H](NC(=O)CCCCCCCCCCCCCCCCCCC(=O)O)C(=O)O)C(=O)N[C@@H](CC(N)=O)C(=O)N[C@@H]([C@@H](C)O)C(=O)N[C@@H](C)C(=O)N[C@@H]([C@@H](C)O)C(=O)N1)[C@@H](C)O)C(=O)N[C@@H](CC(C)C)C(=O)N1CCC[C@H]1C(=O)N1CCC[C@H]1C(=O)N[C@H](C(=O)N[C@@H](CC(N)=O)C(=O)N[C@H](C(=O)NCC(=O)N[C@@H](CO)C(=O)N[C@@H](CC(N)=O)C(=O)N[C@H](C(=O)N1CCC[C@H]1C(N)=O)[C@@H](C)O)C(C)C)[C@@H](C)O` [PD164] ({C20 diacid-γGlu}-KCNTATCATQRLADFLRHSSNNLDPILPPTNVGSNTP-NH2; disulfide 2-7 (inferred)) is 111 pM; for `CC[C@H](C)[C@H](NC(=O)[C@@H]1CCCN1C(=O)CNC(=O)[C@H](CC(C)C)NC(=O)[C@H](CC(N)=O)NC(=O)[C@H](CC(N)=O)NC(=O)[C@H](CO)NC(=O)[C@H](CO)NC(=O)[C@H](Cc1c[nH]cn1)NC(=O)[C@H](CCCNC(=N)N)NC(=O)[C@H](CC(C)C)NC(=O)[C@H](Cc1ccccc1)NC(=O)[C@H](CC(=O)O)NC(=O)[C@H](C)NC(=O)[C@H](CC(C)C)NC(=O)[C@H](CCCNC(=N)N)NC(=O)[C@H](CCC(N)=O)NC(=O)[C@@H](NC(=O)[C@H](C)NC(=O)[C@@H]1CSSC[C@H](NC(=O)[C@H](CCCCN)NC(=O)COCCOCCNC(=O)CC[C@H](NC(=O)CCCCCCCCCCCCCCCCCCC(=O)O)C(=O)O)C(=O)N[C@@H](CC(N)=O)C(=O)N[C@@H]([C@@H](C)O)C(=O)N[C@@H](C)C(=O)N[C@@H]([C@@H](C)O)C(=O)N1)[C@@H](C)O)C(=O)N[C@@H](CC(C)C)C(=O)N1CCC[C@H]1C(=O)N1CCC[C@H]1C(=O)N[C@H](C(=O)N[C@@H](CC(N)=O)C(=O)N[C@H](C(=O)NCC(=O)N[C@@H](CO)C(=O)N[C@@H](CC(N)=O)C(=O)N[C@H](C(=O)N1C[C@H](O)C[C@H]1C(N)=O)[C@@H](C)O)C(C)C)[C@@H](C)O` [PD122] ({C20 diacid-γGlu-AEEA}-KCNTATCATQRLADFLRHSSNNLGPILPPTNVGSNT[Hyp]-NH2; disulfide 2-7) it is 48 pM.
